According to ChEMBL document CHEMBL4257485, “The critical role of novel benzophenone analogs on tumor growth inhibition targeting angiogenesis and apoptosis” (Medchemcomm, 2018):
Calls of active or inactive are those of the source. The rule behind the calls is not given here.

What was measured:
[1] = tested on: A549; assay: Induction of apoptosis in human A549 cells assessed as live cells after 12 to 15 hrs by annexin-V-FITC/propidium iodide staining-based flow cytometric method (reference value: 73.8%); assay type: functional
[2] = tested on: A549; assay: Induction of apoptosis in human A549 cells assessed as early apoptotic cells after 12 to 15 hrs by annexin-V-FITC/propidium iodide staining-based flow cytometric method (reference value: 1.65%); assay type: functional
[3] = tested on: A549; assay: Cell cycle arrest in human A549 cells assessed as accumulation at G0/G1 phase after 16 hrs by propidium iodide staining-based flow cytometric method (reference value: 70.8%); assay type: functional
[4] = tested on: A549; assay: Induction of apoptosis in human A549 cells assessed a late apoptotic cells after 12 to 15 hrs by annexin-V-FITC/propidium iodide staining-based flow cytometric method (reference value: 14.3%); assay type: functional
[5] = tested on: A549; assay: Induction of apoptosis in human A549 cells assessed as formation of apoptotic bodies after 12 to 15 hrs by flow cytometric method; assay type: functional, cell-based
[6] = tested on: A549; assay: Cell cycle arrest in human A549 cells assessed as accumulation at sub-G1 phase after 16 hrs by propidium iodide staining-based flow cytometric method (reference value: 0.69%); assay type: functional
[7] = tested on: A549; assay: Induction of apoptosis in human A549 cells assessed as cell condensation after 12 to 15 hrs by flow cytometric method; assay type: functional, cell-based
[8] = tested on: A549; assay: Cell cycle arrest in human A549 cells assessed as accumulation at S phase after 16 hrs by propidium iodide staining-based flow cytometric method (reference value: 24.8%); assay type: functional
[9] = tested on: A549; assay: Cell cycle arrest in human A549 cells assessed as accumulation at G2/M phase after 16 hrs by propidium iodide staining-based flow cytometric method (reference value: 3.44%); assay type: functional
[10] = tested on: A549; assay: Induction of apoptosis in human A549 cells assessed a necrotic cells after 12 to 15 hrs by annexin-V-FITC/propidium iodide staining-based flow cytometric method (reference value: 10.2%); assay type: functional
[11] = tested on: A549; assay: Cytotoxicity against human A549 cells after 48 hrs by trypan blue exclusion assay; assay type: functional, cell-based; conditions: A549, 48 h
[12] = tested on: MCF7; assay: Cytotoxicity against human MCF7 cells after 48 hrs by trypan blue exclusion assay; assay type: functional, cell-based; conditions: MCF7, 48 h
[13] = tested on: HeLa; assay: Cytotoxicity against human HeLa cells after 48 hrs by trypan blue exclusion assay; assay type: functional, cell-based
[14] = tested on: MCF7; assay: Cytotoxicity against human MCF7 cells after 48 hrs by MTT assay; assay type: functional, cell-based; conditions: MCF7, 48 h
[15] = tested on: HeLa; assay: Cytotoxicity against human HeLa cells after 48 hrs by LDH release assay; assay type: functional, cell-based
[16] = tested on: NIH3T3; assay: Cytotoxicity against mouse NIH/3T3 cells after 48 hrs by trypan blue exclusion assay; assay type: cell-based; conditions: NIH3T3, 48 h
[17] = tested on: A549; assay: Cytotoxicity against human A549 cells after 48 hrs by LDH release assay; assay type: functional, cell-based; conditions: A549, 48 h
[18] = tested on: NIH3T3; assay: Cytotoxicity against mouse NIH/3T3 cells after 48 hrs by LDH release assay; assay type: cell-based; conditions: NIH3T3, 48 h
[19] = tested on: NIH3T3; assay: Cytotoxicity against mouse NIH/3T3 cells after 48 hrs by MTT assay; assay type: cell-based; conditions: NIH3T3, 48 h
[20] = tested on: A549; assay: Cytotoxicity against human A549 cells after 48 hrs by MTT assay; assay type: functional, cell-based; conditions: A549, 48 h
[21] = tested on: MCF7; assay: Cytotoxicity against human MCF7 cells after 48 hrs by LDH release assay; assay type: functional, cell-based; conditions: MCF7, 48 h
[22] = tested on: HeLa; assay: Cytotoxicity against human HeLa cells after 48 hrs by MTT assay; assay type: functional, cell-based

## CC[C@@]1(O)C(=O)OCc2c1cc1n(c2=O)Cc2cc3ccccc3nc2-1 [CAMPTOTHECIN]
[1]
  Activity: 65.1%
[2]
  Activity: 2.16%
[3]
  Activity: 59.4%
[4]
  Activity: 23.6%
[5]
  Activity: Active
[6]
  Activity: 19%
[7]
  Activity: Active
[8]
  Activity: 19.2%
[9]
  Activity: 2.43%
[10]
  Activity: 9.12%

## Cn1cnc(C(=O)NNC(=O)COc2c(F)cc(C(=O)c3ccc(Cl)cc3)cc2Cl)c1
[11]
  IC50: 47.3 µM
[12]
  IC50: 47.3 µM
[13]
  IC50: 51.6 µM
[14]
  IC50: 43.1 µM
[15]
  IC50: 54.5 µM
[16]
  IC50: 90.9 µM
[17]
  IC50: 45.8 µM
[18]
  IC50: 89.3 µM
[19]
  IC50: 87.8 µM
[20]
  IC50: 49.1 µM
[21]
  IC50: 44.4 µM

## Cn1cnc(C(=O)NNC(=O)COc2c(F)cc(C(=O)c3ccc(F)cc3)cc2Cl)c1
[11]
  IC50: 39.6 µM
[12]
  IC50: 44.6 µM
[13]
  IC50: 39.9 µM
[14]
  IC50: 45.1 µM
[15]
  IC50: 40.9 µM
[16]
  IC50: 94.2 µM
[17]
  IC50: 40.7 µM
[18]
  IC50: 94.4 µM
[19]
  IC50: 89.2 µM
[20]
  IC50: 40.1 µM
[22]
  IC50: 42.2 µM
[21]
  IC50: 44.6 µM

## O=C(COc1c(F)cc(C(=O)c2ccc(F)cc2)cc1Cl)NNC(=O)c1ccc(=O)oc1
[11]
  IC50: 56.7 µM
[12]
  IC50: 62.2 µM
[13]
  IC50: 59.2 µM
[14]
  IC50: 63.2 µM
[15]
  IC50: 60.1 µM
[16]
  IC50: 85.4 µM
[17]
  IC50: 60.2 µM
[18]
  IC50: 89.8 µM
[19]
  IC50: 87.8 µM
[20]
  IC50: 58.8 µM
[22]
  IC50: 59.9 µM
[21]
  IC50: 61.1 µM
